Changes are numbered by the printed parent chain.
Assays:
human TRPV3 C496A mutant = human TRPV3 C496A mutant (Homo sapiens, UniProt Q8NET8, C496A); conditions: C496A vs wild type
mouse TRPV3 Y564A = mouse TRPV3 Y564A vs wild type; cited from earlier work
wild-type human TRPV3 = molecular target: T1, wild-type human TRPV3 (Homo sapiens, UniProt Q8NET8); assay: Fura-2AM ratiometric Ca2+ uptake measurements, wild-type TRPV3; format: cell-based
T1 sequence (Q8NET8 1-791 isoform Q8NET8-2): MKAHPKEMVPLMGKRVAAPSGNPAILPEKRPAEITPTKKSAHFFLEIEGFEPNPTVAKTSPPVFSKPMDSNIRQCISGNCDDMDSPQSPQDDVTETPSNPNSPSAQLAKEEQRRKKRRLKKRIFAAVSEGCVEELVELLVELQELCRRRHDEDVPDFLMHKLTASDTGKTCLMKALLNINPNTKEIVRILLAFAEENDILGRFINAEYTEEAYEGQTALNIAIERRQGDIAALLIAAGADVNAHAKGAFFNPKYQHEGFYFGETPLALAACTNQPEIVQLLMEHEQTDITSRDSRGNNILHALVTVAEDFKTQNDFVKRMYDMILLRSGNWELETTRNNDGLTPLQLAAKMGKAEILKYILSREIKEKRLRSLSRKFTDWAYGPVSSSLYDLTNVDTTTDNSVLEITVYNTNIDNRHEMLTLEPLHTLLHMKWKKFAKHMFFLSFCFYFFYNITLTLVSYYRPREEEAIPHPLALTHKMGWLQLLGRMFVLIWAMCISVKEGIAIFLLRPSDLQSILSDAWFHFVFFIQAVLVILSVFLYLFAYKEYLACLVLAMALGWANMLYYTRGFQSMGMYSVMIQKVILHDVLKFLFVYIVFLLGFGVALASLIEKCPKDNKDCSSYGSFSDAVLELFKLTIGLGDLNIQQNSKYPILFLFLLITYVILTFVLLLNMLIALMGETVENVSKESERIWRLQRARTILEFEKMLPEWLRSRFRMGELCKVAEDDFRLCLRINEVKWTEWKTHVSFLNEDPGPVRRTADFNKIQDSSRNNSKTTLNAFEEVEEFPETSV

human TRPV3 L557A mutant = molecular target: T2, human TRPV3 L557A mutant (Homo sapiens, UniProt Q8NET8, L557A); assay: Fura-2AM Ca2+ uptake measurements, L557A mutant; format: cell-based
T2 sequence (Q8NET8 1-791 isoform Q8NET8-2 L557A): T1 sequence (Q8NET8 1-791 isoform Q8NET8-2) with L557A

Sequence of human TRPV3 C496A mutant (Q8NET8 1-791 isoform Q8NET8-2 C496A): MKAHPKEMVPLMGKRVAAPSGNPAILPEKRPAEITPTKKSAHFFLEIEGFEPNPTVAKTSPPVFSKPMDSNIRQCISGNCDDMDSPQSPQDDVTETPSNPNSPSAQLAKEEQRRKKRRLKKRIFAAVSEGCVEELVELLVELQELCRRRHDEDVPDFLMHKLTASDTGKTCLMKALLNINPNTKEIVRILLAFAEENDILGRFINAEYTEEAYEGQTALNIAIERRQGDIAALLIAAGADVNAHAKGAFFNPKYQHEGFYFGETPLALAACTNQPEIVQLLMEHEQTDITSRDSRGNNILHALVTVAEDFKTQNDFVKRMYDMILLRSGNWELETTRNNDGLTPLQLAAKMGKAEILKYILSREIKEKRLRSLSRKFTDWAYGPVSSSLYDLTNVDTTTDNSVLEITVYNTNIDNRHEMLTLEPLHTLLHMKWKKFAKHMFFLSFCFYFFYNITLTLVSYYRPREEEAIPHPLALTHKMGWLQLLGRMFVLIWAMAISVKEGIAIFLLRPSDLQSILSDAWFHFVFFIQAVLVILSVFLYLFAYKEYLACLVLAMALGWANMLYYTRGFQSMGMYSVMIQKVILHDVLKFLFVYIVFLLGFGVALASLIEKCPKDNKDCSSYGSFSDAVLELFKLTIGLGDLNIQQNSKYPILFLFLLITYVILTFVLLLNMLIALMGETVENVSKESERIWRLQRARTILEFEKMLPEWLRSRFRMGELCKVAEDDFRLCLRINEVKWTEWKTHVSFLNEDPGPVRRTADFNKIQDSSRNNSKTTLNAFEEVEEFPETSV

Row | Compound | activating potency enhanced compared to wild-type TRPV3 (human TRPV3 C496A mutant) | increase in 2-APB potency on Y564 substitution with alanine (mouse TRPV3 Y564A) [fold] | EC50 (wild-type human TRPV3) [µM] | maximum absolute value of the fluorescence intensity ratio (F340/F380) (wild-type human TRPV3; wild type, n = 3) | EC50 (human TRPV3 L557A mutant) [µM] | maximum absolute value of the fluorescence intensity ratio (F340/F380) (human TRPV3 L557A mutant; L557A, n = 3, P = 0.61 vs wild type)
1 | NCCOB(c1ccccc1)c1ccccc1 [2-APB, 2-aminoethoxydiphenylborane] | ~ 3 fold | 20 | – | – | – | –
2 | CCCc1cc(O)c2c(c1)OC(C)(C)[C@@H]1CCC(C)=C[C@@H]21 [THCV, tetrahydrocannabivarin] | – | – | 6.1 ± 0.5 | 5.29 ± 0.04 | 0.081 ± 0.001 | 5.58 ± 0.47

Reference: publication PMC11062575 (Science Advances, 2024)
